How the values were obtained:
[1] = test system: primary dopaminergic neurons; experiment: MPP+ exposure in dopaminergic neurons; type: cell-based, rat; conditions: 10 μM MPP+ 60 minutes, control 100, MPP+ alone 56.6
Description: Primary dopaminergic neurons were isolated from E15 rat embryos as described in Pong K., et al., (1997) J. Neurochem. 69 986-994. Briefly, the ventral mesencephalon was isolated and tissue was pooled in ice-cold phosphate buffer saline (PBS) without Ca^2+ and Mg^2+. The tissue was transferred to an enzymatic dissociation media containing 20 IU/ml papain in Earle's balanced salt solution (Worthington Biochemical, Freehold, N.J.) and incubated for 30 minutes at 37° C. After enzymatic dissociation, the papain solution was aspirated and the tissue mechanically triturated with a fire-polished Pasteur pipette in complete media [Neurobasal Medium with B-27 supplement (Gibco, Grand Island, N.Y.), penicillin/streptomycin, aphidicolin, glutamate] containing 2,000 IU/ml DNase and 10 mg/ml ovomucoid protease inhibitor. Single-cell suspensions in complete media were plated on pre-coated poly-L-ornithine/laminin 24-well plates (Becton-Dickinson, Bedford, Mass.) at a density of 5.0×10^5 cells/well. Cells were maintained for one week prior to experimentation.
Cultures were exposed to 10 μM MPP^+ for 60 minutes. After the exposure, fresh media was exchanged and fresh compound was added. Dopaminergic neuron viability was determined 24 hours later by measuring ^3H-dopamine uptake as described in Pong et al., 1997, supra.

[2] = test system: experimental autoimmune encephalomyelitis (EAE); experiment: Experimental autoimmune encephalomyelitis (EAE) model of multiple sclerosis; type: in vivo, mouse
Description: Six groups of B6 mice were immunized with MOG/CFA and injected with pertussis toxin to induce experimental autoimmune encephalomyelitis (EAE), an animal model of Multiple sclerosis. Three groups of mice were treated with vehicle, 4-{3-[1-benzhydryl-5-chloro-2-(2-{[(2,6-dimethylbenzyl)sulfonyl]amino}ethyl)-1H-indol-3-yl]propyl}benzoic acid (Compound A), or 4-{2-[1-benzhydryl-5-chloro-2-(2-{[(3,4-dichlorobenzyl)sulfonyl]amino}-ethyl)-1H-indol-3-yl]ethoxy}benzoic acid (Compound B) from the day of Immunization (orally, 100 mg/kg, twice/day). Another three groups of mice were treated with vehicle, Compound A or Compound B starting on the day of EAE onset (day 15) (orally, 100 mg/kg, twice/day). […] The results are shown in the Table below, wherein mean clinical score is a mean of clinical evaluation of each animal for that particular day.
Animals are Scored as Follows:
• 0—no clinical signs of EAE (no paralysis) • 1—paralysis of tail • 2—paralysis of tail and partial hind leg paralysis • 3—paralysis of tail and complete hind leg paralysis • 4—paralysis of tail, complete hind leg paralysis and a partial front leg paralysis • 5—moribund animal (all four limbs paralyzed, lack of responsiveness, these mice were immediately euthanized).
In addition, the compounds of Examples 14 and 25 were also found to be efficacious in the mouse experimental autoimmune encephalomyelitis (EAE) model of multiple sclerosis. As shown by the data in the Table below, these compounds led to a delayed onset of disease and reduced severity of disease when administered orally in doses as low as 2.5 mg/kg.

CFA-induced hyperalgesia = CFA-induced hyperalgesia model; type: in vivo, rat; conditions: 6 hours after CFA
From the text: The sensitivity of peripheral sensory neurons can be enhanced such that they respond to both noxious and non-noxious stimuli resulting in chronic pain (See Julius, D. et al., Nature. 2001; 413:203; Woolf, C. J., et al., Science. […]; 288:1765). Prostaglandins and leukotrienes at the site of inflammation and tissue damage are partially responsible for this potentiation of the pain response. Prostaglandins promote the phosphorylation of ion channels, increasing the excitability and lowering the pain threshold of sensory neurons. Analogously, leukotriene B4 and related arachidonate metabolites of 12-LO bind to and activate the capsaicin receptor (or VR1) ion channel on neurons that respond to heat and low pH (See Piomelli D., TRENDS in Pharmacological Sciences, January 2001; 22(1):17-29). The effect of the compound of Example 10 was measured in the CFA-induced hyperalgesia model, and lipid mediator production was measured at peripheral and central sites.
The animals were dosed with vehicle, the compound of Example 10, naproxen or celecoxib, and then CFA was immediately injected into the hind footpad. To assess hyperalgesia, pressure was applied to the left hind paw at a slow and constant rate using a digital force gauge. Measurements were taken at 0 and 6 hours. The application of the force was stopped when the animal vocalized, or struggled. Readings were taken prior to dosing and CFA injection, and repeated six hours after the CFA injection. Two independent experiments were run and the data were analyzed separately.
The paws were collected at the end of each experiment (6 hours) and the levels of PGE2, LTB4 and TXB2 were measured in the exudates.

SMILES: O=C(O)c1ccc(OCCc2c(CCNS(=O)(=O)Cc3ccc(Cl)c(Cl)c3)n(C(c3ccccc3)c3ccccc3)c3ccc(Cl)cc23)cc1 [Compound B, 4-{2-[1-benzhydryl-5-chloro-2-(2-{[(3,4-dichlorobenzyl)sulfonyl]amino}-ethyl)-1H-indol-3-yl]ethoxy}benzoic acid]
- dopaminergic neuron viability (3H-dopamine uptake), Avg. ([1]; 0.3 μM): 74
- dopaminergic neuron viability (3H-dopamine uptake), Avg. ([1]; 1 μM): 71.6
- dopaminergic neuron viability (3H-dopamine uptake), Avg. ([1]; 3 μM): 78.6
- dopaminergic neuron viability (3H-dopamine uptake), Avg. ([1]; 10 μM): 83.2
- mean clinical score ([2]; 100 mg/kg orally twice/day from EAE onset (day 15), day 11 after immunization): 0
- mean clinical score ([2]; 100 mg/kg orally twice/day from EAE onset (day 15), day 12 after immunization): 0
- mean clinical score ([2]; 100 mg/kg orally twice/day from EAE onset (day 15), day 13 after immunization): 0
- mean clinical score ([2]; 100 mg/kg orally twice/day from EAE onset (day 15), day 14 after immunization): 0
- mean clinical score ([2]; 100 mg/kg orally twice/day from EAE onset (day 15), day 15 after immunization): 0.10
- mean clinical score ([2]; 100 mg/kg orally twice/day from EAE onset (day 15), day 16 after immunization): 0.45
- mean clinical score ([2]; 100 mg/kg orally twice/day from EAE onset (day 15), day 17 after immunization): 0.80
- mean clinical score ([2]; 100 mg/kg orally twice/day from EAE onset (day 15), day 18 after immunization): 1.05
- mean clinical score ([2]; 100 mg/kg orally twice/day from EAE onset (day 15), day 19 after immunization): 1.10
- mean clinical score ([2]; 100 mg/kg orally twice/day from EAE onset (day 15), day 20 after immunization): 1.00
- mean clinical score ([2]; 100 mg/kg orally twice/day from EAE onset (day 15), day 21 after immunization): 1.20
- mean clinical score ([2]; 100 mg/kg orally twice/day from EAE onset (day 15), day 22 after immunization): 1.10
- mean clinical score ([2]; 100 mg/kg orally twice/day from EAE onset (day 15), day 23 after immunization): 1.40
- mean clinical score ([2]; 100 mg/kg orally twice/day from EAE onset (day 15), day 24 after immunization): 1.35
- mean clinical score ([2]; 100 mg/kg orally twice/day from EAE onset (day 15), day 25 after immunization): 1.25
- mean clinical score ([2]; 100 mg/kg orally twice/day from EAE onset (day 15), day 26 after immunization): 1.40
- mean clinical score ([2]; 100 mg/kg orally twice/day from EAE onset (day 15), day 27 after immunization): 1.55
- mean clinical score ([2]; 100 mg/kg orally twice/day from day of immunization (Day 1), day 11 after immunization): 0
- mean clinical score ([2]; 100 mg/kg orally twice/day from day of immunization (Day 1), day 12 after immunization): 0
- mean clinical score ([2]; 100 mg/kg orally twice/day from day of immunization (Day 1), day 13 after immunization): 0
- mean clinical score ([2]; 100 mg/kg orally twice/day from day of immunization (Day 1), day 14 after immunization): 0
- mean clinical score ([2]; 100 mg/kg orally twice/day from day of immunization (Day 1), day 15 after immunization): 0
- mean clinical score ([2]; 100 mg/kg orally twice/day from day of immunization (Day 1), day 16 after immunization): 0
- mean clinical score ([2]; 100 mg/kg orally twice/day from day of immunization (Day 1), day 17 after immunization): 0.06
- mean clinical score ([2]; 100 mg/kg orally twice/day from day of immunization (Day 1), day 18 after immunization): 0.06
- mean clinical score ([2]; 100 mg/kg orally twice/day from day of immunization (Day 1), day 19 after immunization): 0.11
- mean clinical score ([2]; 100 mg/kg orally twice/day from day of immunization (Day 1), day 20 after immunization): 0.39
- mean clinical score ([2]; 100 mg/kg orally twice/day from day of immunization (Day 1), day 21 after immunization): 0.44
- mean clinical score ([2]; 100 mg/kg orally twice/day from day of immunization (Day 1), day 22 after immunization): 0.50
- mean clinical score ([2]; 100 mg/kg orally twice/day from day of immunization (Day 1), day 23 after immunization): 0.67
- mean clinical score ([2]; 100 mg/kg orally twice/day from day of immunization (Day 1), day 24 after immunization): 0.56
- mean clinical score ([2]; 100 mg/kg orally twice/day from day of immunization (Day 1), day 25 after immunization): 0.56
- mean clinical score ([2]; 100 mg/kg orally twice/day from day of immunization (Day 1), day 26 after immunization): 0.56
- mean clinical score ([2]; 100 mg/kg orally twice/day from day of immunization (Day 1), day 27 after immunization): 0.72
- prevention of EAE / reduction of clinical severity ([2]; administered from the time of immunization, or in mice with or close to EAE): can prevent EAE

SMILES: COc1ccc2cc([C@H](C)C(=O)O)ccc2c1 [naproxen, reference compound]
- LTB4 levels in paw exudates (CFA-induced hyperalgesia): increased
- TXB2 levels in paw exudates (CFA-induced hyperalgesia): greater than the inhibition with celecoxib
- PGE2 levels in paw exudates (CFA-induced hyperalgesia; Example 10 at 25 mg/kg): significantly inhibited
